US8642516B2, “Chemically-defined arrays for screening cell-substrate interactions” (Wisconsin Alumni Research Foundation, priority 2012, dated 2014)

Experiments:
Format in all cases: cell-based, human
hMSC [1] = experiment: hMSC spreading (projected cell area) on SAM array spots presenting GRGDSP; settings: hMSCs
Procedure: (§1) For cell assays on SAM arrays, HUVECs or hMSCs were removed from plastic culture plates using a 0.05% trypsin solution, resuspended in media, and seeded onto SAM arrays in sterile polystyrene Petri dishes. After allowing cells to attach for ˜1 hour in a humidified incubator at 37° C. and 5% CO2, arrays were dipped in warm media to remove loosely attached cells and then transferred to a rectangular multidish (Thermo Scientific/Nunc, Rochester, N.Y.) with warm media and imaged ˜4 hours later serving as “0 hr.” For the initial time point and subsequent time-lapse imaging, arrays were placed on an incubated stage and each array spot was imaged every 15 minutes for 72 hours. […]
(§2) Relative cell attachment at 0 hrs was quantified by counting the number of attached cells per spot and normalizing cell numbers to maximal attachment conditions. Normalized cell number was calculated by dividing the number of cells per spot at 72 hours (C72) to the cell number observed on the same spot at 0 hrs (C0). Relative proliferation was determined by dividing normalized cell numbers at 72 hours by the maximum average normalized cell number observed across GRGDSP density conditions. Similarly, relative spreading was determined by dividing projected cell areas to the maximum average projected cell area observed across GRGDSP density conditions. […]

HUVEC [2] = experiment: HUVEC spreading (projected cell area) on SAM array spots presenting GRGDSP
Procedure: For cell assays on SAM arrays, HUVECs or hMSCs were removed from plastic culture plates using a 0.05% trypsin solution, resuspended in media, and seeded onto SAM arrays in sterile polystyrene Petri dishes. After allowing cells to attach for ˜1 hour in a humidified incubator at 37° C. and 5% CO2, arrays were dipped in warm media to remove loosely attached cells and then transferred to a rectangular multidish (Thermo Scientific/Nunc, Rochester, N.Y.) with warm media and imaged ˜4 hours later serving as “0 hr.” For the initial time point and subsequent time-lapse imaging, arrays were placed on an incubated stage and each array spot was imaged every 15 minutes for 72 hours. Furthermore, it is important to point out that all cell experiments for comparison between HUVECs and hMSCs were run simultaneously.
For immunocytochemistry, at 24 and 72 hour time points during the time-lapse experiment, staining for the actin cytoskeleton and focal adhesion markers was performed as directed by the manufacturer (Catalog No. FAK100, Millipore, Billerica, Mass.). […]
Relative cell attachment at 0 hrs was quantified by counting the number of attached cells per spot and normalizing cell numbers to maximal attachment conditions. Normalized cell number was calculated by dividing the number of cells per spot at 72 hours (C72) to the cell number observed on the same spot at 0 hrs (C0). Relative proliferation was determined by dividing normalized cell numbers at 72 hours by the maximum average normalized cell number observed across GRGDSP density conditions. Similarly, relative spreading was determined by dividing projected cell areas to the maximum average projected cell area observed across GRGDSP density conditions. […] For each spot, average cell projected area was calculated by dividing the thresholded actin staining (red channel) by the total number of nuclei in the same spot. […]
Specifically, SAM arrays were prepared as described above. […] Cell spreading was determined by culturing HUVECs and hMSCs for 24 hours and 72 hours and analyzed by cell staining and quantified by measuring projected cell area. […]

hMSC [3] = experiment: hMSC migration (single cell tracking) on SAM array spots presenting GRGDSP; settings: hMSCs, each ligand density condition (0.06%-5%)
Procedure: as §1, §2

HUVEC [4] = experiment: HUVEC migration (single cell tracking) on SAM array spots presenting GRGDSP; settings: HUVECs
Procedure: as §1, §2

HUVEC [5] = experiment: HUVEC proliferation (Click-it EdU) in response to soluble morphogens on SAM arrays; settings: increased immobilized GRGDSP density
Procedure: Specifically, SAM array spots presenting mixed ligands were prepared as described above. SAM arrays presenting varied ligand densities of covalently immobilized VEGF receptor-binding peptide ([sequence], here referred to as “VR-BP”; SEQ ID NO:17) and varied ligand densities of the fibronectin-derived cell adhesion peptide (GRGDSP, SEQ ID NO:18) were used to probe for changes in HUVEC attachment, proliferation and tubulogenesis. Control over individual ligand density was achieved by mixing scrambled VR-BP and mutant GRGESP (SEQ ID NO:19) with functional VR-BP or GRGDSP (SEQ ID NO:18) peptides, respectively. Therefore, in a typical SAM array, SAMs were locally formed within spots using an alkanethiolate mixture of 94% HS—C11-EG3-OH and 6% HS—C11-EG6-COOH to create substrates with a total of 6% carboxylate groups for peptide conjugation. Next, to create a spot presenting 5% GRGDSP (SEQ ID NO:18) and 1% VR-BP, a 300 μM peptide solution with 250 μM GRGDSP (SEQ ID NO:18) and 50 μM VR-BP was used during peptide conjugation. Likewise, to create a spot presenting 2.5% GRGDSP (SEQ ID NO:18) and 0.1% VR-BP, a 300 μM peptide solution with 125 μM GRGDSP (SEQ ID NO:18), 125 μM GRGESP (SEQ ID NO:19), 5 μM VR-BP and 45 μM scrambled peptide was used during peptide conjugation. In this manner, the amount of active ligand could be varied between spots while holding the total ligand content constant.
Passage 2 HUVECs were expanded at low cell density (less than 70% confluence) on tissue culture polystyrene to no more than 14 population doublings. During HUVEC expansion, cells were cultured in medium 199 (m199, Mediatech, Manassas, Va.) containing 1% penicillin/streptomycin (Hyclone, Logan, Utah) and supplemented with Clonetics EGM-2 BullitKit (Lonza Walkersville, Inc., Walkersville, Md.) containing Hydrocortisone, hFGF-B, VEGF, R3-IGF-1, Ascorbic Acid, Heparin, FBS, hEGF, GA-1000 growth supplements. […]

hMSC [6] = experiment: hMSC proliferation (normalized cell number C72/C0) on SAM array spots presenting GRGDSP; settings: hMSCs, 72 hours
Procedure: as §1, §2

Q: GRGDSP was tested. Which “maximal projected cell area” value (hMSC [1]; 24 hrs, SAM spots with 1.6% and 5% GRGDSP) did it give?
A: greater than 4000 μm^2

Q: What about the “change in projected cell area from 24 to 72 hrs” value (hMSC [1]; across several GRGDSP densities) of the same substance?
A: slight decreases

Q: And the “maximal HUVEC spreading (projected cell area)” value (HUVEC [2]; 72 hours, SAM spots with 1.67% and 5% GRGDSP)?
A: 6000 μm^2

Q: What about the “maximal projected cell area” value (HUVEC [2]; HUVECs, 24 hrs, SAM spots with 1.6% and 5% GRGDSP) of the same substance?
A: greater than 4000 μm^2

Q: And the “change in projected cell area from 24 to 72 hrs” value (HUVEC [2]; HUVECs, all GRGDSP densities above 0.06%)?
A: increasing their projected cell area

Q: What about the “fraction of migrating cells” value (hMSC [3]) of the same substance?
A: greater than 37%

Q: And the “fraction of migrating cells” value (HUVEC [4]; high GRGDSP densities)?
A: virtually no cells migrating

Q: And the “fraction of migrating cells” value (HUVEC [4]; lower GRGDSP densities)?
A: over 30%

Q: And the “HUVEC proliferation dependence on ligand density” value (HUVEC [5])?
A: increased proliferation

Q: What about the “maximum normalized cell number (C72/C0)” value (hMSC [6]; across GRGDSP densities) of the same substance?
A: 6.1

Q: What about the proliferation (hMSC [6]; below 0.06% GRGDSP) of the same substance?
A: no proliferation
